Results from PubChem BioAssay AID602279 (Broad Institute, 2012).
Activity calls are given as the source filed them.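 The calls were made as follows: active = fitted curve reaches 40% growth rescue activation at or below the top valid tested concentration; inconclusive = flat fit between 30 and 70%, or poor fit quality; inactive = activity opposite to the expected rise, and the rest.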

How the values were obtained:
[1] = yeast growth restoration under alpha-synuclein stress, dose response, S. cerevisiae, OD600, dry powder (AID 602279); details: S. cerevisiae alpha-synuclein toxicity rescue, OD600 growth, 24 h; at 26 µM (top of the series)
[2] = tested on: S. cerevisiae alpha-synuclein toxicity rescue, OD600 growth, 24 h; test: as above

Row | Compound | growth rescue activation [1] | AC40 [2]
1 | O=c1c2ccccc2[nH]c(=S)n1CCC1=CCCCC1 | 18.9% (inactive) | –
2 | Cc1ccccc1CSc1nsc(N)n1 | – | > 26 µM (inactive)
3 | Fc1cc(NCc2ccccc2)nc(NCc2ccccc2)n1 | – | > 26 µM (inactive)
4 | CC(C)c1ccc(C2NC(=O)c3ccccc3O2)cc1 (centres undefined) | – | > 26 µM (inactive)
